From patent US20190022189A1, “USE OF SERELAXIN TO REDUCE GDF-15” (NOVARTIS AG, priority 2014, published 2019)
Marks after values point to notes of the source that are not given here.

How the values were obtained:
[1] = system: patients hospitalized with acute heart failure; assay: Pulmonary hemodynamic effects in patients hospitalized with acute heart failure (Example 2); type: in vivo, human
Method: (§1) In a separate study, the pulmonary hemodynamic effects (e.g., the pulomonary load) of serelaxin were evaluated in patients hospitalized with acute heart failure (Ponikowski et al., Eur Heart J 35:431-441 (2014)). Patients were randomized 1:1 to serelaxin or placebo, initially stabilized, then infused with serelaxin at a dose of 30 ug/kg/d for 20 hours. Pulmonary congestion at the time of presentation was a required inclusion criterion. Time elapsed from hospital admission to the beginning of intravenous infusion of serelaxin was less than 29 hours. Serelaxin exerted rapid hemodynamic effects; changes were detected within the first 30 minutes of infusion and were sustained throughout the treatment period. Serelaxin reduced the time weighted average pulmonary capillary wedge pressure from baseline in the first eight hours of treatment (p=0.0001) as well as during hours 8-20 (p=0.03).
(§2) Pulmonary capillary wedge pressure (PCWP), mean pulmonary artery pressure (PAP), and pulmonary vascular resistance (PVR) were measured as well as NTproBNP and GDF-15 An analysis was performed of the association of GDF-15 and NTproBNP with these hemodynamic indices.

GDF-15 [2] = assay: GDF-15 in the pulmonary hemodynamic study, 20 hour infusion (Example 2); type: in vivo, human
Method: as §1
GDF-15 was measured in blood samples collected in serum separating tubes. The serum samples were centrifuged within two hours and plasma was stored at −20° C. or lower, followed by storage at −80° C. until the analysis was performed. GDF-15 was measured using a pre-commercial electrochemiluminescent immunoassay provided by Roche Diagnostics GmbH (Mannheim, Germany). All samples from the same patient were analyzed at the same time at a certified central laboratory by personnel blinded to patient treatment and study data.

[3] = system: patients with acute heart failure; conditions: Phase 3 trial in acute heart failure (Teerlink et al.); cited from earlier work
[4] = system: patients with acute heart failure; assay: Clinical outcomes in the acute heart failure trial (dyspnea, hospital stay, cardiovascular death); type: in vivo, human
Method: (§3) In an international, double-blind, placebo-controlled trial (Teerlink et al., Lancet 381:29-39 (2013)) the entire contents of which are herein incorporated by reference, patients displaying pulmonary congestion on chest radiograph and admitted to the hospital for acute heart failure were randomized to a 48 hour intravenous infusion of placebo or 30 μg/kg/d serelaxin. Time elapsed from arrival to the hospital to the intravenous administration of serelaxin was less than nine hours. […] The 48 hour infusion of serelaxin reduced cardiovascular death at 180 days ([…]). No previous intervention outcome trial in patients with acute heart failure has shown a beneficial effect on post discharge mortality.
Changes in patient-reported dyspnea were assessed through day 5 as the area under the change from baseline in visual analog scale score through day 5, where the worst possible score was assigned following death or worsening heart failure (dyspnea VAS AUC). Reasons for rehospitalization through day 60 and causes of deaths through day 180 were adjudicated centrally by a blinded endpoint committee.

GDF-15 [5] = assay: Serum GDF-15 by electrochemiluminescent immunoassay in placebo-controlled acute heart failure trial (Example 1); type: in vivo, human
Method: as §3
Blood samples for biomarker analysis were collected in serum separating tubes prior to initiation of serelaxin or placebo (baseline) and at days 2, 5, 14, and 60. ‘The serum samples were centrifuged within 30 to 60 minutes of collection following visualization of a clot, frozen at −20° C. for up to four weeks, then sent on dry ice to a central laboratory for storage at −80° C. until the analysis was performed. GDF-15 was measured in the samples using a pre-commercial electrochemiluminescent immunoassay provided by Roche Diagnostics GmbH (Mannheim, Germany). All samples from the same patient were analyzed at the same time at a certified central laboratory by personnel blinded to patient treatment and study data. The reporting range for GDF-15 was 400 to 20,000 ng/L.
Multivariable linear regression models were developed for the changes in GDF-15 levels from baseline to days 2 and 14 using baseline patient clinical characteristics and routine laboratory measures; backwards elimination in the placebo, group was used, with p<0.10 as the criterion for retention in the model. Missing predictors were imputed with the treatment-group-specific median for continuous variables and mode for categorical variables. GDF-15 values were log-transformed. The linearity of associations was assessed using restricted cubic splines, and if significant non-linearity was found (at p<0.10), a dichotomized, trichotoniized, linear spline or quadratic or cubic polynomial transformation was chosen based on the univariable Akaike's Information Criterion. Adjusted R^2 values from 5-fold cross-validations are presented. The serelaxin effect on biomarker changes was then estimated in all patients with multivariable adjustment for covariates prognostic of these changes in the placebo group.

NTproBNP = NTproBNP in the pulmonary hemodynamic study (Example 2); type: in vivo, human; conditions: 20 hour infusion; p=0.037
Method: as §1, §2

[6] = system: patients with acute heart failure; assay: Cox regression models of 180-day cardiovascular mortality in the acute heart failure trial; type: in vivo, human
Text: Multivariable linear regression models were developed for the changes in biomarker levels from baseline to day 2 and 14 using baseline patient clinical characteristics and routine laboratory measures; backwards elimination in the placebo group was used, with p<0.10 as the criterion for retention in the model. Missing predictors were imputed with the treatment-group-specific median for continuous variables and mode for categorical variables. GDF-15 values were log-transformed. To allow consistency and comparability of models with and without biomarkers, missing follow-up biomarker levels were imputed using linear interpolation or as last observation carried forward if no following measure was available. The linearity of associations was assessed using restricted cubic splines, and if significant non-linearity was found (at p<0.10), a dichotomized, trichotomized, linear spline or quadratic or cubic polynomial transformation was chosen based on the univariable Akaike's Information Criterion. The serelaxin effect on GDF-15 changes was then estimated with multivariable adjustment for covariates prognostic of these changes in the placebo group.
Associations of baseline biomarker values and changes with clinical outcomes were estimated with linear regression for dyspnea VAS AUC, and with Cox regression models for 60-day rehospitalization for heart failure or renal failure or cardiovascular death and for 180-day cardiovascular mortality. Linearity of associations of GDF-15 values with outcomes was assessed as above. Mean changes in biomarkers over time were estimated from repeated measures analysis of variance models, with no imputation for missing values.

GDF-15 [7] = conditions: patients with symptomatic heart failure (Anand et al.); cited from earlier work
[8] = system: B-type natriuretic peptide; conditions: patients with symptomatic heart failure (Anand et al.); cited from earlier work
[9] = 30 ug/kg/d infusion for 20 hours

Question: Which pulmonary vascular resistance ([1]; 30 ug/kg/d infusion) does the source give for Serelaxin here?
Answer: Its pulmonary vascular resistance is “concomitant decrease”.

Question: And the systemic vascular resistance ([1]; 30 ug/kg/d infusion)?
Answer: Its systemic vascular resistance is “concomitant decrease”.

Question: And the “time weighted average pulmonary capillary wedge pressure from baseline” value ([1]; first eight hours of treatment, p=0.0001)?
Answer: Its value is “reduced”.

Question: What about the “time until hemodynamic changes were detected” value ([1]; from start of infusion, sustained throughout the treatment period) of the same compound?
Answer: The value was no more than 30 min.

Question: What about the “time weighted average pulmonary capillary wedge pressure from baseline” value ([1]; hours 8-20, p=0.03) of the same compound?
Answer: The value was “reduced”.

Question: And the “improvements in PCWP, PAP and PVR compared to placebo” value ([1]; over the 20 hour infusion period, all p values <0.005)?
Answer: Its value is “favored serelaxin”.

Question: What about the “systolic and diastolic pulmonary arterial pressure” value ([1]; p=0001 at four hours) of the same compound?
Answer: The value was “significantly lowered”.

Question: What about the “GDF-15 levels versus placebo” value (GDF-15 [2]; [9]) of the same compound?
Answer: The value was “significantly decreased”.

Question: What about the “reduction of GDF-15 geo-mean from baseline” value (GDF-15 [2]; [9]) of the same compound?
Answer: Its value is 16%.

Question: What about the “GDF-15 treatment difference in favor of serelaxin versus placebo” value (GDF-15 [2]; 30 ug/kg/d infusion for 20 hours, p=0.0204) of the same compound?
Answer: The value was 18%.

Question: And the baseline median GDF-15 (GDF-15 [2]; baseline, serelaxin group)?
Answer: The baseline median GDF-15 was 3260 ng/L.

Question: And the dyspnea [3]?
Answer: The dyspnea was “rapid relief”.

Question: And the “mortality at six months” value [3]?
Answer: The value was “reduced”.

Question: What about the “cardiovascular death at 180 days” value ([4]; 48 hour infusion, p=0.28) of the same compound?
Answer: The value was “reduced”.

Question: And the patient-reported general well-being ([4]; 48 hour iv infusion 30 μg/kg/d)?
Answer: The patient-reported general well-being was “improvements”.

Question: And the “primary dyspnea efficacy endpoint, Visual Acuity Scale area under the curve” value ([4]; 48 hour iv infusion 30 μg/kg/d vs placebo, p=0.007)?
Answer: The value was “significantly improved”.

Question: And the “reduction of time in the intensive care or coronary care unit” value ([4]; vs placebo, p=0.03)?
Answer: The value was 0.4 days.

Question: And the “reduction of average length of hospital stay” value ([4]; vs placebo, p=0.04)?
Answer: The value was 0.9 days.

Question: And the “GeoMean GDF-15” value (GDF-15 [5]; Baseline (before start of infusion))?
Answer: The value was 4380.3 ng/L.

Question: What about the “Median GDF-15” value (GDF-15 [5]; Baseline (before start of infusion), serelaxin group n = 530) of the same compound?
Answer: Its value is 4115.5 ng/L.

Question: And the “GDF-15 GeoMean Change vs Baseline” value (GDF-15 [5]; Day 2)?
Answer: The value was −21.6%*.

Question: What about the “GeoMean GDF-15” value (GDF-15 [5]; Day 2, 48 hour iv infusion 30 μg/kg/d) of the same compound?
Answer: Its value is 3395.6 ng/L.

Question: What about the “Median GDF-15” value (GDF-15 [5]; Day 2, 48 hour iv infusion 30 μg/kg/d, n = 530) of the same compound?
Answer: The value was 3341.0 ng/L.

Question: What about the “GDF-15 GeoMean Change vs Baseline” value (GDF-15 [5]; Day 5) of the same compound?
Answer: Its value is −14.95* %.

Question: What about the “GeoMean GDF-15” value (GDF-15 [5]; Day 5, 48 hour iv infusion 30 μg/kg/d) of the same compound?
Answer: Its value is 3690.3 ng/L.

Question: And the “Median GDF-15” value (GDF-15 [5]; Day 5, 48 hour iv infusion 30 μg/kg/d, n = 530)?
Answer: The value was 3584.5 ng/L.

Question: And the “GDF-15 GeoMean Change vs Baseline” value (GDF-15 [5]; Day 14)?
Answer: The value was −20.2%*.

Question: What about the “GeoMean GDF-15” value (GDF-15 [5]; Day 14, 48 hour iv infusion 30 μg/kg/d) of the same compound?
Answer: The value was 3397.0 ng/L.

Question: And the “Median GDF-15” value (GDF-15 [5]; Day 14, 48 hour iv infusion 30 μg/kg/d, n = 530)?
Answer: The value was 3296.0 ng/L.

Question: What about the “GDF-15 GeoMean Change vs Baseline” value (GDF-15 [5]; Day 60) of the same compound?
Answer: Its value is −26.4%*.

Question: What about the “GeoMean GDF-15” value (GDF-15 [5]; Day 60, 48 hour iv infusion 30 μg/kg/d) of the same compound?
Answer: Its value is 3114.0 ng/L.

Question: What about the “Median GDF-15” value (GDF-15 [5]; Day 60, 48 hour iv infusion 30 μg/kg/d, n = 530) of the same compound?
Answer: Its value is 2981.5 ng/L.

Question: And the “GDF-15 levels versus placebo, both in addition to standard of care” value (GDF-15 [5]; day 14)?
Answer: The value was “approached statistical significance”.

Question: And the GDF-15 level (GDF-15 [5]; day 60)?
Answer: Its GDF-15 level is “trend towards lower”.

Question: And the “GDF-15 levels versus placebo, both in addition to standard of care” value (GDF-15 [5]; days 2 and 5)?
Answer: Its value is “significantly lower”.

Question: And the “decrease in GDF-15” value (GDF-15 [5]; to day 14)?
Answer: The value was “faster decrease”.

Question: And the NTproBNP (NTproBNP)?
Answer: The NTproBNP was “significantly reduced”.

Question: What about the “HR, CV death through Day 180” value ([6]; adjusted for baseline GDF-15 and change in GDF-15 from baseline to Day 2) of the same compound?
Answer: Its value is 0.832.

Question: And the “HR, CV death through Day 180” value ([6]; adjusted for baseline GDF-15 and change in GDF-15 from baseline to Day 14, N = 1037)?
Answer: The value was 0.847.

Question: What about the “HR, CV death through Day 180” value ([6]; adjusted for change in GDF-15 from baseline to Day 2 and multivariable predictors of outcome) of the same compound?
Answer: Its value is 0.763.

Question: What about the “HR, CV death through Day 180” value ([6]; adjusted for change in GDF-15 from baseline to Day 14 and multivariable predictors of outcome, N = 1037) of the same compound?
Answer: The value was 0.753.

Question: And the “hazard ratio for 180-day CV mortality” value ([6]; multivariable adjustment for baseline covariates, without GDF-15 change, 95% CI 0.430-1.028)?
Answer: Its value is 0.665.

Question: What about the “hazard ratio for 180-day CV mortality” value ([6]; unadjusted for other baseline covariates, 95% CI 0.403-0.950) of the same compound?
Answer: Its value is 0.619.

Question: Which “effect on GDF-15” value (GDF-15 [7]) does the source give for `CCCCC(=O)N(Cc1ccc(-c2ccccc2-c2nnn[nH]2)cc1)[C@H](C(=O)O)C(C)C` [Valsartan] here?
Answer: The value was “no effect”.

Question: And the “heart failure biomarker B-type natriuretic peptide” value [8]?
Answer: The value was “lower”.
